pIC50: −log10 of the molar value.
Legend:
Dunaliella culture = experiment: Dunaliella growth in F2 media in seawater, optical density at 680 and 750 nm; type: cell-based; settings: for effect on Dunaliella growth: various concentrations, F2 media in seawater, after approximately six days, optical density 680 and 750 nm
Method: (§1) According to one exemplary method, thirty (30) microliters of a Dunaliella culture were inoculated into seven (7) milliliters of F2 media within seawater. The mixture was distributed evenly between six well plates. Glyphosate was added at various concentrations. Additional well plates were inoculated with the same Dunaliella culture, but were not treated with glyphosate. After approximately six days, optical density measurements at both 680 and 750 nanometers were taken in triplicate for each of the various glyphosate concentrations.
as §1, with “in” for “within”, “Ammonium chloride” for “Glyphosate”, “ammonium chloride.” for “glyphosate.”, “ammonium chloride” for “glyphosate”
as §1, with “in” for “within”, “Ammonium hydroxide” for “Glyphosate”, “ammonium hydroxide.” for “glyphosate.”, “ammonium hydroxide” for “glyphosate”

Nannochloropsis culture = experiment: Nannochloropsis growth in F2 media in seawater, optical density at 680 and 750 nm; type: cell-based; settings: for effect on Nannochloropsis growth: various concentrations, F2 media in seawater, after approximately six days, optical density 680 and 750 nm; for pIC50: 144 h, read-out: concentration that inhibited Nannochloropsis growth by approximately fifty percent (50%)
Method: as §1, with “a Nannochloropsis” for “a Dunaliella”, “culture was introduced” for “culture were inoculated”, “media in” for “media within”, “same Nannochloropis” for “same Dunaliella”, “culture, however, the well plates” for “culture, but”
as §1, with “a Nannochloropsis” for “a Dunaliella”, “media in” for “media within”, “plates. Ammonium chloride” for “plates. Glyphosate”, “same Nannochloropis” for “same Dunaliella”, “with ammonium chloride.” for “with glyphosate.”, “various ammonium chloride” for “various glyphosate”
as §1, with “Nannochloropsis” for “Dunaliella”, “in” for “within”, “Ammonium hydroxide” for “Glyphosate”, “ammonium hydroxide.” for “glyphosate.”, “ammonium hydroxide” for “glyphosate”
According to one exemplary method, thirty (30) microliters of a Nannochloropsis culture was introduced into seven (7) milliliters of F2 media in seawater. The mixture was distributed evenly between six well plates. Glufosinate was added at various concentrations. Additional well plates were inoculated with the same Nannochloropsis culture, however, the well plates were not treated with glufosinate. After approximately six days, optical density measurements at both 680 and 750 nanometers were taken in triplicate for each of the various glufosinate concentrations.

Structure (SMILES): Cl.N [ammonium chloride]
- effect on Dunaliella growth (Dunaliella culture): did not inhibit Dunaliella growth
- effect on Nannochloropsis growth (Nannochloropsis culture): did not inhibit Nannochloropsis growth

Structure (SMILES): N [ammonium hydroxide]
- effect on Dunaliella growth (Dunaliella culture): did not inhibit Dunaliella growth
- effect on Nannochloropsis growth (Nannochloropsis culture): did not inhibit Nannochloropsis growth

Structure (SMILES): CP(=O)(O)CCC(N)C(=O)O (stereo not shown) [glufosinate]
- pIC50 (Nannochloropsis culture): ~4.60
- effect on Nannochloropsis growth (Nannochloropsis culture): controlled (inhibited) Nannochloropsis growth

Structure (SMILES): O=C(O)CNCP(=O)(O)O [glyphosate]
- pIC50 (Dunaliella culture; 144 h, read-out: concentration that inhibited Dunaliella growth by approximately fifty percent (50%)): ~2.92
- effect on Dunaliella growth (Dunaliella culture): inhibited Dunaliella growth
- pIC50 (Nannochloropsis culture): ~3.10
- effect on Nannochloropsis growth (Nannochloropsis culture): controlled (inhibited) Nannochloropsis growth
